Experimental data as given in patent US20220388979A1, “QUINOLINE DERIVATIVES AS PROTEIN KINASE INHIBITORS” (B.C.I. PHARMA, priority 2019, published 2022).
Read-outs that look alike come from different tables or passages of the source.

Assays:
[1] = test system: M-NFS-60 cells; experiment: Cell proliferation in M-NFS-60 leukemia cell line (WST-1); type: cell-based; settings: for IC50: cell proliferation, 72 h, WST-1, read-out: M-NFS-60 IC 50
Protocol: M-NFS-60: Exponential growing M-NFS-60 cells (ATCC, CRL-1838) were seeded at […]per 200 μl of complete medium with beta-mercaptoethanol and M-CSF (62 ng/mL) or IL34 (500 ng/mL). Twenty μL of test compound dilution were added to each well and the plates were incubated for 72 h at 37° C., 5% CO2. Untreated cells and positive control (0.5% triton X-100, for the last 15 min) served as reference for maximum and minimum viability. At the end of incubation 100 μl of supernatant were removed and replaced by 10 μl of WST-1 solution (Cell Proliferation Reagent WST-1, Roche Applied Science). After 3 h incubation at 37° C., 5% CO2, optical densities were measured at 450 nm and 620 nm for the background on microplate reader (Envision 2105, Perkinelmer).
(§1) IC50 were measured and experiments were performed at least in duplicate.
(§2) Cell-based assays of compounds CC395-CC397, depicted above, against M-NFS-60 and HEK-CSF1R have been performed following the procedures described in example 29 and 30 and compared with their quinoline analogues 32, 44 and 108.

[2] = target: CSF1R (Homo sapiens, UniProt P07333); experiment: HEK-CSF1R-STAT5-Luc reporter assay, M-CSF stimulated; type: cell-based; set-up: host or cells: HEK293T (ATCC CRL-3216); settings: for IC50: 600 ng/ml M-CSF, 24 h, luciferase, read-out: HEK-CSF1R-STAT5 IC 50
Protocol: HEK-CSF1R-STAT5-Luc: Exponential growing HEK293T cells (ATCC® CRL-3216™), ectopically expressing human CSF1R receptor (Origene) and five copies of a STAT5 response element (STAT5 RE, promega) that drives transcription of the luciferase reporter were seeded at 5·10^3 per 20 μl of complete DMEM medium. The next day, 2.25 μL of test compound dilution were added to each well and stimulated with 600 ng/ml of M-CSF. The plates were incubated for 24 h at 37° C., 5% CO2. Unstimulated and stimulated cells served as reference for […]. At the end of incubation 25 μl of Steady-Glo® Luciferase Assay System (Promega) were added after 5 min of lysis, luminescence was measured on microplate reader (Envision 2105, Perkinelmer).
as §1, §2

[3] = test system: male C57Bl6J mice; experiment: Streptozotocin-induced diabetic neuropathic pain model, Von Frey mechanical threshold (compound 32 study); type: in vivo; settings: pregabalin subcutaneous 0.5 mg/mL in phosphate buffer (100 μL/10 g)
Protocol: The experiment has been conducted in 8 weeks old male C57Bl6J mice (from Charles River). For this study, 6 mice per group have been used.
(§3) Diabetes has been induced by a single IP injection of 200 μg/mL streptozotocin solution (100 μL/10 g). Glycemia has been tested before, D+3 and D+7 post-injection. All injected mice presented blood glucose concentration […] at D+7, and then have been used for analgesic testing of the compounds.
(§4) Compound 32 has been orally administrated at 6 mg/mL in Capryol 90 solution (50 μL/10 g) and pregabalin has been subcutaneously injected at 0.5 mg/mL in phosphate buffer (100 μL/10 g) at D+14 and D+16. A time course measurement at +1 h, +2 h, +4 h and +6 h has been performed after compound administration.
(§5) Mechanical threshold response of mice has been measured with calibrated Von Frey filaments using the up/down method, blind for manipulator. Measurements have been performed before streptozotocin injection and 14 days after.
(§6) Statistical analysis was performed using SigmaPlot 12.5 software. Percentage of maximum possible effect is calculated as follow
(§7) % MPE=[(Test−Prest)/(cut-off−Prest)]*100
(§8) Where cut-off, Test and Pretest values correspond respectively to baseline measure, timepoint post-administration measure and measure before administration.

[4] = test system: male C57B16J mice; experiment: Streptozotocin-induced diabetic neuropathic pain model, Von Frey mechanical threshold (compound 108 study); type: in vivo; settings: pregabalin subcutaneous 0.5 mg/mL in phosphate buffer (100 μL/10 g)
Protocol: The experiment has been conducted in 8 weeks old male C57B16J mice (from Charles River). For this study, 10 mice per group have been used.
as §3
as §4, with “Compound 108” for “Compound 32”, “at 2, 5 and 10” for “at 6”, “in 0.9% NaCl” for “in Capryol 90”, “and D+17.” for “and D+16.”
as §5, §6, §7, §8

[5] = 32 vs CC395, 44 vs CC396, 108 vs CC397

CSF1R, sequence (P07333 20-972): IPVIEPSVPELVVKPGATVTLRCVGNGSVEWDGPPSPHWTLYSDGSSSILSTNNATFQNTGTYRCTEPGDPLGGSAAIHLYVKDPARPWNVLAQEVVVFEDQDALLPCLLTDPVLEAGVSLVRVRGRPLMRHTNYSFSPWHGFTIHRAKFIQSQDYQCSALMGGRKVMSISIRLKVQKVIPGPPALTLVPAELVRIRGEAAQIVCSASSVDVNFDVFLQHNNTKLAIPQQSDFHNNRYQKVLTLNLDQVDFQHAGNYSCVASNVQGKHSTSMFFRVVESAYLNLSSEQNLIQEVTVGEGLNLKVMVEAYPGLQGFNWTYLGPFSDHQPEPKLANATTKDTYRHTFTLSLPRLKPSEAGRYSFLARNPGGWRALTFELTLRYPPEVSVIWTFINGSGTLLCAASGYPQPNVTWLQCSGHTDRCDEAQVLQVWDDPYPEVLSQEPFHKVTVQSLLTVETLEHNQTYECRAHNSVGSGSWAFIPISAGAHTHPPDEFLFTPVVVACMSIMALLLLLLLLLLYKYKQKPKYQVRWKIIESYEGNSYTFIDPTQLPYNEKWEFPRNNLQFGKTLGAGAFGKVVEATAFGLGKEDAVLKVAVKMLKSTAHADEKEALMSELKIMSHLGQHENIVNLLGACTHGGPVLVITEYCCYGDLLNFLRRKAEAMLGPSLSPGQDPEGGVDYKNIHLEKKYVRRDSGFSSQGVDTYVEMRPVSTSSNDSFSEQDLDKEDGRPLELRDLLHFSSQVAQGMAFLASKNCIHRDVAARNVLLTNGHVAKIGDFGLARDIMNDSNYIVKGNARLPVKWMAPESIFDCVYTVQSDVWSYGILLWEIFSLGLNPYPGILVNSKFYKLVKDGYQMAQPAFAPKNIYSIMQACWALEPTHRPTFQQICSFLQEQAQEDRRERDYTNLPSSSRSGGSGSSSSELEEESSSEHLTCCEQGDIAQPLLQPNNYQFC

SMILES: Cc1c(Oc2ncnc3cc(Cl)ccc23)cccc1C(=O)NCc1ccncc1 [CC 397, 3-(7-chloroquinazolin-4-yl)oxy-2-methyl-N-(4-pyridylmethyl)benzamide, reference compound]
- IC50 ([1]; Table 9): 1260 nM
- IC50 ([2]; Table 9): 4150 nM

SMILES: COc1cc2nccc(Oc3cccc(CC(=O)NCc4ccncc4)c3)c2cc1OC [CC400, reference compound]
- IC50 ([1]; Table 10): 4220 nM
- IC50 ([2]; Table 10): 2270 nM

SMILES: COc1ccc2c(Oc3cccc(C(=O)NCc4ccncc4)c3C)ccnc2c1 [compound 32, 3-[(7-methoxy-4-quinolyl)oxy]-2-methyl-N-(4-pyridylmethyl)benzamide]
- IC50 ([1]; Table 9): 34 nM
- IC50 ([2]; Table 9): 26 nM

SMILES: COc1cc2nccc(Oc3cccc(CC(=O)Nc4ccncc4)c3)c2cc1OC [CC401, reference compound]
- IC50 ([1]; Table 10): 7510 nM
- IC50 ([2]; Table 10): 3850 nM

SMILES: COc1cc2nccc(Oc3cccc(NC(=O)Cc4ccncc4)c3)c2cc1OC [CC399, reference compound]
- IC50 ([1]; Table 10): 5210 nM
- IC50 ([2]; Table 10): 3540 nM

SMILES: COc1ccc2c(Oc3cccc(C(=O)NCc4ccncc4F)c3C)ccnc2c1 [compound 44]
- fold decrease in IC50 against M-NFS-60 compared to quinazoline-based comparative compound [1, 5]: 22 fold
- IC50 ([1]; Table 9): 19 nM
- fold decrease in IC50 against HEK-CSF1R-STAT5 compared to quinazoline-based comparative compound [2, 5]: 86 fold
- IC50 ([2]; Table 9): 7 nM

SMILES: CC(C)C[C@H](CN)CC(=O)O [Pregabalin, pregabalin]
- Analgesic effect expressed as % MPE ([3]; +1 h): 80.7 ± 10.8 % MPE
- Analgesic effect expressed as % of baseline ([3]; +1 h): 81.2 ± 7.9 % of baseline
- Analgesic effect expressed as % MPE ([3]; +2 h): 84.6 ± 10.6 % MPE
- Analgesic effect expressed as % of baseline ([3]; +2 h): 86.0 ± 9.1 % of baseline
- Analgesic effect expressed as % MPE ([3]; +4 h): 33.9 ± 5.8 % MPE
- Analgesic effect expressed as % of baseline ([3]; +4 h): 45.0 ± 5.3 % of baseline
- Analgesic effect expressed as % MPE ([3]; +6 h): 5.9 ± 4.3 % MPE
- Analgesic effect expressed as % of baseline ([3]; +6 h): 23.5 ± 2.1 % of baseline
- Analgesic effect expressed as % MPE ([4]; +1 h): 76.6 ± 15.4 % MPE
- Analgesic effect expressed as % of baseline ([4]; +1 h): 80.6 ± 12.4 % of baseline
- Analgesic effect expressed as % MPE ([4]; +2 h): 79.5 ± 13.7 % MPE
- Analgesic effect expressed as % of baseline ([4]; +2 h): 85.7 ± 10.7 % of baseline
- Analgesic effect expressed as % MPE ([4]; +4 h): 31.0 ± 17.0 % MPE
- Analgesic effect expressed as % of baseline ([4]; +4 h): 45.6 ± 13.0 % of baseline
- Analgesic effect expressed as % MPE ([4]; +6 h): 10.9 ± 7.5 % MPE
- Analgesic effect expressed as % of baseline ([4]; +6 h): 30.3 ± 4.8 % of baseline
